{"source": "patent US7211685B2", "about": "“Calcium receptor antagonists” (Japan Tobacco Inc., priority 2000, dated 2007)", "key": {"human calcium receptor": {"biological_target": "T1, human calcium receptor (Homo sapiens, UniProt P41180)", "T1 construct": "expressed in transfected cells; host or cells: cell strain derived from rat adrenal", "T1 sequence (P41180 20-1078)": "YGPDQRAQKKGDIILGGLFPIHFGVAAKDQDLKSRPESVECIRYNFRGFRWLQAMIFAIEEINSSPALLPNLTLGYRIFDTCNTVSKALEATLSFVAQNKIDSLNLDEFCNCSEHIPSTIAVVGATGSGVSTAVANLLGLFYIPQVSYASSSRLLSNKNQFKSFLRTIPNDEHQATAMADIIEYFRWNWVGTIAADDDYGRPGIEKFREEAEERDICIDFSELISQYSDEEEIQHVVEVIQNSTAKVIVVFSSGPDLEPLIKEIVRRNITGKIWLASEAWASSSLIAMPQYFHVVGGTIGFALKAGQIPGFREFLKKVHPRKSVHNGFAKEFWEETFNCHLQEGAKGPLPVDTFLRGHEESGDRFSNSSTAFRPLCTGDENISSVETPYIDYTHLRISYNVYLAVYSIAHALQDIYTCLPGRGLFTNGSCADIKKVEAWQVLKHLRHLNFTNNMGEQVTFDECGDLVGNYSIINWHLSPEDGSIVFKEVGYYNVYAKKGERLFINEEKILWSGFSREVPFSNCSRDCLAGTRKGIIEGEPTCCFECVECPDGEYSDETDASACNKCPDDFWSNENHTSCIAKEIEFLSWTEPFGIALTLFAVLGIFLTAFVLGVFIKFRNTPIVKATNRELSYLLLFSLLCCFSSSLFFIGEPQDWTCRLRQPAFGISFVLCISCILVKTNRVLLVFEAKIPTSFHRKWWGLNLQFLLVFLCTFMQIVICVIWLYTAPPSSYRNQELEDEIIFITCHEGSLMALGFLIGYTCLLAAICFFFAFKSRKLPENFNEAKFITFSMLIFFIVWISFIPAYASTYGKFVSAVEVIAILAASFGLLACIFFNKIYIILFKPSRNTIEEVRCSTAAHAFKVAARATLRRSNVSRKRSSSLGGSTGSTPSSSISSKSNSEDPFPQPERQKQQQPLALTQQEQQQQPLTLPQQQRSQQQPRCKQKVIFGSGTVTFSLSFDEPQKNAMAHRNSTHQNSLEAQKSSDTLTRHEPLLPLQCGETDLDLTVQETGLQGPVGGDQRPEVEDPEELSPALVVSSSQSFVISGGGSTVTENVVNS", "test": "Evaluation of antagonistic action on calcium receptor using reporter gene (luciferase)", "format": "cell-based", "procedure": "Evaluation of Antagonistic Action on Calcium Receptor Using Reporter Gene\nLuciferase cDNA and human calcium receptor cDNA were transfected into a cell strain derived from rat adrenal and the transformed cells were cultured overnight in a medium (F12 medium containing 0.5% dialyzed horse serum and 0.25% dialyzed bovine fetal serum). The next day, a dimethyl sulfoxide solution containing a test compound at 0.01–100 mM was diluted 100-fold with the medium and added to the test compound group at 10 μl per well. A medium containing 50 mM calcium chloride was added to the control group at 10 μl per well, such that the final calcium concentration of the medium became 5 mM. A medium alone was added to the blank group. After culture for 4 hr, luciferase substrate (PicaGene LT-2.0, TOYO INK) was added and the luciferase activity was measured with a photoluminometer. The inhibitory rate (%) was calculated from the obtained measured values according to the following formula.\nBased on the results, the concentration (IC50) showing 50% inhibitory rate was determined."}, "PTH secretion [1]": {"system": "PTH secretion", "test": "PTH secretion promoting action, oral administration to female Fisher rats, serum PTH by rat PTH (1-84) ELISA", "format": "in vivo", "conditions": "30 mg/5 ml/kg, mean ± S.E.", "procedure": "(§1) PTH Secretion Promoting Action\nThe test compound was orally administered to 4 to 6-week-old female Fisher rats (Charles River Japan, Inc.) fasted for 20 hr, using a solvent (5% ethanol, 0.5% aqueous methyl cellulose solution) at a dose of 30 mg/5 ml/kg. A solvent alone was orally administered to the control group at a dose of 5 ml/kg. The blood was drawn from the tail vein immediately before and 0.5, 1, 2, 4 hr after the administration of the test compound, and sera were obtained. The serum PTH concentration was measured using rat PTH (1-84) ELISA kit (Nohon Medi-Physics). The results of the serum PTH concentration before and 30 min and 4 hr after the administration of the test compound are shown in Table 26."}, "[2]": {"conditions": "OVX rat; cited from earlier work"}, "PTH release": {"system": "PTH release", "conditions": "OVX rat, cited from earlier work"}, "PTH secretion [3]": {"system": "PTH secretion", "test": "PTH secretion promoting action, oral administration to male SD rats, serum PTH by rat PTH (1-84) ELISA", "format": "in vivo", "procedure": "as §1\nThe test compound was orally administered to 6 to 9-week-old male SD rats (Charles River Japan, Inc.) fasted for 20 hr, using a solvent (5% ethanol, 0.5% aqueous methyl cellulose solution) at a dose of 30 mg/5 ml/kg and 100 mg/5 ml/kg. A solvent alone was orally administered to the control group at a dose of 5 ml/kg. The blood was drawn from the tail vein immediately before and 0.5, 1, 2, 4, 6 hr after the administration of the test compound, and sera were obtained. The serum PTH concentration was measured using rat PTH (1-84) ELISA kit (Nohon Medi-Physics). The results of the serum PTH concentration before and 30 min and 4 hr after the administration of the test compound are shown in Table 24, and the results of the serum PTH concentration before and 30 min and 2 hr after the administration of the test compound of the 30 mg/5 ml/kg administration group are shown in Table 25.\nIn FIG. 1, FIG. 2 and FIG. 3, the time-course changes of the serum PTH concentration at the dose (30 mg/kg) of Example 22, Example 23 and Example 24 are shown."}, "[4]": {"system": "osteoblast and osteoclast", "conditions": "cited from earlier work"}, "[5]": {"conditions": "Table 25, 30 mg/5 ml/kg administration group, male SD rats, oral, mean ± S.E."}}, "note": "pIC50: −log10 of the molar value.", "data": [{"compound": "Cc1ccccc1[C@H](OC[C@H](O)CNC(C)(C)Cc1ccc2ccccc2c1)C1CC1.O=C(O)/C=C/C(=O)O", "note": "[Example 62]", "values": [{"measurement": "pIC50", "setting": "human calcium receptor; Table 24, final calcium 5 mM", "result": 7.35}, {"measurement": "serum PTH concentration, 30 min later", "setting": "PTH secretion [1]", "result": "620.6 ± 34.2", "unit": "pg/mL"}, {"measurement": "serum PTH concentration, 240 min later", "setting": "PTH secretion [1]", "result": "100.1 ± 11.7", "unit": "pg/mL"}, {"measurement": "serum PTH concentration, before administration", "setting": "PTH secretion [1]", "result": "82.9 ± 14.5", "unit": "pg/mL"}]}, {"compound": "CC(C)(Cc1ccc2ccccc2c1)NC[C@@H](O)CO[C@H](c1ccccc1CO)C1CC1", "note": "[Example 59, (2R)-1-[1,1-Dimethyl-2-(naphthalen-2-yl)ethylamino]-3-[(1S)-(cyclopropyl)[2-(hydroxymethyl)phenyl]methoxy]propan-2-ol Hemifumarate]", "values": [{"measurement": "serum PTH concentration, 30 min later", "setting": "PTH secretion [1]", "result": "313.4 ± 103.3", "unit": "pg/mL"}, {"measurement": "serum PTH concentration, 240 min later", "setting": "PTH secretion [1]", "result": "62.2 ± 10.3", "unit": "pg/mL"}, {"measurement": "serum PTH concentration, before administration", "setting": "PTH secretion [1]", "result": "189.8 ± 90.9", "unit": "pg/mL"}]}, {"compound": "CC(C)(Cc1ccc2ccccc2c1)NC[C@@H](O)CO[C@@H](c1ccccc1CO)C1CC1", "note": "[Example 58, (2R)-1-[1,1-Dimethyl-2-(naphthalen-2-yl)ethylamino]-3-[(1R)-(cyclopropyl)[2-(hydroxymethyl)phenyl]methoxy]propan-2-ol Hemifumarate]", "values": [{"measurement": "serum PTH concentration, 30 min later", "setting": "PTH secretion [1]", "result": "644.4 ± 65.2", "unit": "pg/mL"}, {"measurement": "serum PTH concentration, 240 min later", "setting": "PTH secretion [1]", "result": "394.1 ± 100.9", "unit": "pg/mL"}, {"measurement": "serum PTH concentration, before administration", "setting": "PTH secretion [1]", "result": "179.2 ± 45.6", "unit": "pg/mL"}]}, {"compound": "CC(C)(Cc1ccc2ccccc2c1)NC[C@@H](O)COc1cccc(Cl)c1C#N", "note": "[NPS-2143]", "values": [{"measurement": "concentration in blood of NPS-2143 after 24 hr", "setting": "[2]", "result": "not more than 10 ng/ml"}, {"measurement": "concentration in blood of NPS-2143 at 8 hr after administration", "setting": "[2]", "result": "above 100 ng/ml"}, {"measurement": "PTH concentration in blood after 4 hr", "setting": "PTH release; NPS-2143 100 μmol/kg", "result": "about 140 pg/ml"}, {"measurement": "PTH concentration in blood at 30 min", "setting": "PTH release; NPS-2143 100 μmol/kg", "result": "about 115 pg/ml"}, {"measurement": "effect on bone", "setting": "PTH release; oral administration", "result": "no bone increase or decrease was found"}, {"measurement": "PTH secretion promoting action, time course (FIG. 5)", "setting": "PTH secretion [3]; 30 mg/kg, rat", "result": "sustained secretion promoting action"}, {"measurement": "direct effect on osteoblast and osteoclast in vitro", "setting": "[4]", "result": "no direct effect"}]}, {"compound": "rat PTH (1-34): rat parathyroid hormone fragment (1-34) administered to OVX rat (AVSEIQLMHNLGKHLASVERMQWLRKKLQDVHNF; Parathyroid hormone; UniProt P04089 32-65, looked up, fragment)", "values": [{"measurement": "PTH concentration in blood, peak in 30 min", "setting": "PTH release; rat PTH (1-34) 5 μg/kg", "result": "about 175 pg/ml"}, {"measurement": "time to restore original PTH level in blood", "setting": "PTH release; rat PTH (1-34) 5 μg/kg", "result": 2, "unit": "h"}]}, {"compound": "CN(C)c1ccccc1C(OC[C@H](O)CNC(C)(C)Cc1ccc2ccccc2c1)C1CC1", "note": "(stereo partly shown) [Example 82]", "values": [{"measurement": "pIC50", "setting": "human calcium receptor; Table 25, final calcium 5 mM", "result": 7.29}, {"measurement": "serum PTH concentration, 30 min later", "setting": "PTH secretion [3]; [5]", "result": "121.9 ± 9.0", "unit": "pg/mL"}, {"measurement": "serum PTH concentration, 120 min later", "setting": "PTH secretion [3]; [5]", "result": "68.5 ± 11.4", "unit": "pg/mL"}]}]}
